Data as given in patent US10570129B2 (Zoetis Services LLC, priority 2015, dated 2020).

What was measured:
D. immitis microfilariae = test: Dirofilaria immitis, microfilariae (DiMF) in vitro motility assay; assay type: cell-based; settings: Dirofilaria immitis, 72 h, read-out: DiMF minimally effective dose (MEC)
Haemonchus contortus L3 = test: microbe, parasite or virus in culture; assay type: cell-based; settings: Haemonchus contortus, 96 h, read-out: HcL3 Minimal Effective Concentration (MEC)

Compound	minimal effective concentration (D. immitis microfilariae)	minimal effective concentration (Haemonchus contortus L3)
O=C(NCc1ccnc(Cl)c1)n1c2c(c3cc(Cl)c(Cl)cc31)CN(C/C=C/c1ccc(Cl)c(F)c1)CC2 [Example 274, (E)-7,8-dichloro-2-(3-(4-chloro-3-fluorophenyl)allyl)-N-((2-chloropyridin-4-yl)methyl)-1,2,3,4-tetrahydro-5H-pyrido[4,3-b]indole-5-carboxamide]	33 µM	1.8 µM
O=C(NCc1ccnc(Cl)c1)n1c2c(c3cc(Cl)ccc31)CN(Cc1ccc3cc(Cl)ccc3n1)CC2 [Example 247, 8-chloro-N-((2-chloropyridin-4-yl)methyl)-2-((6-chloroquinolin-2-yl)methyl)-1,2,3,4-tetrahydro-5H-pyrido[4,3-b]indole-5-carboxamide]	1.8 µM	1 µM
N#Cc1ccc(/C=C/CN2CCc3c(c4ccc(Br)cc4n3C(=O)NCc3ccnc(Cl)c3)C2)cc1 [Example 441, (E)-7-bromo-N-((2-chloropyridin-4-yl)methyl)-2-(3-(4-cyanophenyl)allyl)-1,2,3,4-tetrahydro-5H-pyrido[4,3-b]indole-5-carboxamide]	4.4 µM	> 100 µM
N#Cc1ccc2c(c1)c1c(n2C(=O)NCc2ccnc(F)c2)CCN(C/C=C/c2c(F)cc(F)cc2F)C1 [Example 106, (E)-8-cyano-N-((2-fluoropyridin-4-yl)methyl)-2-(3-(2,4,6-trifluorophenyl)allyl)-1,2,3,4-tetrahydro-5H-pyrido[4,3-b]indole-5-carboxamide]	> 100 µM	0.3 µM
N#Cc1ccc(/C=C/CN2CCc3c(c4ccc(C(F)(F)F)cc4n3C(=O)NCc3ccnc(Cl)c3)C2)cc1F [Example 153, (E)-N-((2-chloropyridin-4-yl)methyl)-2-(3-(4-cyano-3-fluorophenyl)allyl)-7-(trifluoromethyl)-1,2,3,4-tetrahydro-5H-pyrido[4,3-b]indole-5-carboxamide]	7.6 µM	1.3 µM
N#Cc1ccc2c3c(n(C(=O)NCc4ccnc(Cl)c4)c2c1)CCN(C/C=C/c1ccc(F)c(F)c1)C3 [Example 28, (E)-N-((2-chloropyridin-4-yl)methyl)-7-cyano-2-(3-(3,4-difluorophenyl)allyl)-1,2,3,4-tetrahydro-5H-pyrido[4,3-b]indole-5-carboxamide]	4.4 µM	1.8 µM
N#Cc1ccc(/C=C/CN2CCc3c(c4cc(C(F)(F)F)ccc4n3C(=O)NCc3ccnc(O)c3)C2)cc1 [Example 454, (E)-2-(3-(4-cyanophenyl)allyl)-N-((2-hydroxypyridin-4-yl)methyl)-8-(trifluoromethyl)-1,2,3,4-tetrahydro-5H-pyrido[4,3-b]indole-5-carboxamide]	> 100 µM	> 100 µM
Cc1ccc2c(c1)c1c(n2C(=O)NCc2ccnc(Cl)c2)CCN(C/C=C/c2ccc(F)cc2)C1 [Example 433, (E)-N-((2-chloropyridin-4-yl)methyl)-2-(3-(4-fluorophenyl)allyl)-8-methyl-1,2,3,4-tetrahydro-5H-pyrido[4,3-b]indole-5-carboxamide]	5.7 µM	0.5 µM
N#Cc1ccc(/C=C/CN2CCc3c(c4ccc(Cl)cc4n3C(=O)NCc3ccnc(Cl)c3)C2)cc1F [Example 208, (E)-7-chloro-N-((2-chloropyridin-4-yl)methyl)-2-(3-(4-cyano-3-fluorophenyl)allyl)-1,2,3,4-tetrahydro-5H-pyrido[4,3-b]indole-5-carboxamide]	> 100 µM	1.8 µM
O=C(NCc1ccnc(Cl)c1)n1c2c(c3cc(Br)ccc31)CN(C/C=C/c1ccc(F)c(F)c1)CC2 [Example 183, (E)-8-bromo-N-((2-chloropyridin-4-yl)methyl)-2-(3-(3,4-difluorophenyl)allyl)-1,2,3,4-tetrahydro-5H-pyrido[4,3-b]indole-5-carboxamide]	18.2 µM	0.5 µM
CS(=O)(=O)c1ccc(/C=C/CN2CCc3c(c4ccc(C(F)(F)F)cc4n3C(=O)NCc3ccnc(Cl)c3)C2)cc1 [Example 151, (E)-N-((2-chloropyridin-4-yl)methyl)-2-(3-(4-(methylsulfonyl)phenyl)allyl)-7-(trifluoromethyl)-1,2,3,4-tetrahydro-5H-pyrido[4,3-b]indole-5-carboxamide]	13.5 µM	> 100 µM
O=C(NCc1ccnc(F)c1)n1c2c(c3cc(F)c(Cl)cc31)CN(C/C=C/c1cc(F)c(F)c(F)c1)CC2 [Example 315, (E)-7-chloro-8-fluoro-N-((2-fluoropyridin-4-yl)methyl)-2-(3-(3,4,5-trifluorophenyl)allyl)-1,2,3,4-tetrahydro-5H-pyrido[4,3-b]indole-5-carboxamide]	5.7 µM	1 µM
O=C(NCc1ccnc(Cl)c1)n1c2c(c3c(Cl)cccc31)CN(C/C=C/c1ccc(OC(F)(F)F)cc1)CC2 [Example 222, (E)-9-chloro-N-((2-chloropyridin-4-yl)methyl)-2-(3-(4-(trifluoromethoxy)-phenyl)allyl)-1,2,3,4-tetrahydro-5H-pyrido[4,3-b]indole-5-carboxamide]	10 µM	> 100 µM
N#Cc1cc2c(cc1Cl)c1c(n2C(=O)NCc2ccnc(Cl)c2)CCN(C/C=C/c2ccc(Cl)cc2)C1 [Example 296, (E)-8-chloro-2-(3-(4-chlorophenyl)allyl)-N-((2-chloropyridin-4-yl)methyl)-7-cyano-1,2,3,4-tetrahydro-5H-pyrido[4,3-b]indole-5-carboxamide]	> 100 µM	1 µM
O=C(NCc1ccnc(Cl)c1)n1c2c(c3cc4c(cc31)COC4)CN(C/C=C/c1ccc(Cl)cc1)CC2 [Example 480, (E)-8-(3-(4-chlorophenyl)allyl)-N-((2-chloropyridin-4-yl)methyl)-1,3,6,7,8,9-hexahydro-5H-furo[3,4-f]pyrido[4,3-b]indole-5-carboxamide]	3.3 µM	0.3 µM
N#Cc1ccc(/C=C/CN2CCc3c(c4c(Cl)c(F)ccc4n3C(=O)NCc3ccnc(Cl)c3)C2)cc1 [Example 303, (E)-9-chloro-N-((2-chloropyridin-4-yl)methyl)-2-(3-(4-cyanophenyl)allyl)-8-fluoro-1,2,3,4-tetrahydro-5H-pyrido[4,3-b]indole-5-carboxamide]	57.4 µM	1 µM
O=C(NCc1ccnc(F)c1)n1c2c(c3c(C(F)(F)F)cc(F)cc31)CN(C/C=C/c1ccc(Cl)cc1)CC2 [Example 326, (E)-2-(3-(4-chlorophenyl)allyl)-7-fluoro-N-((2-fluoropyridin-4-yl)methyl)-9-(trifluoromethyl)-1,2,3,4-tetrahydro-5H-pyrido[4,3-b]indole-5-carboxamide]	10 µM	7.6 µM
O=C(NCc1ccnc(Cl)c1)n1c2c(c3ccc(C(F)(F)F)cc31)CN(C/C=C/c1ccc(F)cc1)CC2 [Example 160, (E)-N-((2-chloropyridin-4-yl)methyl)-2-(3-(4-fluorophenyl)allyl)-7-(trifluoromethyl)-1,2,3,4-tetrahydro-5H-pyrido[4,3-b]indole-5-carboxamide]	10 µM	1.8 µM
O=C(NCc1ccnc(Cl)c1)n1c2c(c3cc(C(F)(F)F)ccc31)CN(C/C=C/c1ccc(Cl)cc1)CC2 [Example 332, (E)-2-(3-(4-chlorophenyl)allyl)-N-((2-chloropyridin-4-yl)methyl)-8-(trifluoromethyl)-1,2,3,4-tetrahydro-5H-pyrido[4,3-b]indole-5-carboxamide]	13.5 µM	1 µM
N#Cc1ccc2c(c1)c1c(n2C(=O)NCc2ccnc(Cl)c2)CCN(C/C=C/c2ccc(Br)c(F)c2F)C1 [Example 81, (E)-2-(3-(4-bromo-2,3-difluorophenyl)allyl)-N-((2-chloropyridin-4-yl)methyl)-8-cyano-1,2,3,4-tetrahydro-5H-pyrido[4,3-b]indole-5-carboxamide]	> 100 µM	0.2 µM
O=C(NCc1ccnc(Cl)c1)n1c2c(c3cc(OC(F)(F)F)ccc31)CN(C/C=C/c1ccc(C(F)(F)F)cc1)CC2 [Example 396, (E)-N-((2-chloropyridin-4-yl)methyl)-8-(trifluoromethoxy)-2-(3-(4-(trifluoro-methyl)phenyl)allyl)-1,2,3,4-tetrahydro-5H-pyrido[4,3-b]indole-5-carboxamide]	1 µM	3.3 µM
O=C(NCc1ccnc(Cl)c1)n1c2c(c3cc(F)c(Cl)cc31)CN(C/C=C/c1cc(F)cc(F)c1)CC2 [Example 302, (E)-7-chloro-N-((2-chloropyridin-4-yl)methyl)-2-(3-(3,5-difluorophenyl)-allyl)-8-fluoro-1,2,3,4-tetrahydro-5H-pyrido[4,3-b]indole-5-carboxamide]	5.7 µM	0.3 µM
O=C(NCc1ccnc(Cl)c1)n1c2c(c3cc(Cl)c(C(F)(F)F)cc31)CN(C/C=C/c1ccc(Cl)cc1)CC2 [Example 328, (E)-8-chloro-2-(3-(4-chlorophenyl)allyl)-N-((2-chloropyridin-4-yl)methyl)-7-(trifluoromethyl)-1,2,3,4-tetrahydro-5H-pyrido[4,3-b]indole-5-carboxamide]	33 µM	0.3 µM
O=C(NCc1ccnc(F)c1)n1c2c(c3cc(F)c(Cl)cc31)CN(C/C=C/c1ccc(F)cc1)CC2 [Example 319, (E)-7-chloro-8-fluoro-2-(3-(4-fluorophenyl)allyl)-N-((2-fluoropyridin-4-yl)methyl)-1,2,3,4-tetrahydro-5H-pyrido[4,3-b]indole-5-carboxamide]	10 µM	10 µM
